# In PubChem BioAssay (NCI):
#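 96-well plates; 48 h exposure; 5 concentrations. Endpoints by linear interpolation between flanking doses. Not reached: highest tested concentration assigned. GI50 is the concentration that inhibits growth by half. TGI: total growth inhibition.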
# Legend:
# Test in all cases: inhibition of tumour cell growth, NCI panel, 48 h
# HOP-62 NSCLC = system: HOP-62 NSCLC
# HCT-15 colon = system: HCT-15 colon
# 786-0 renal = system: 786-0 renal
# SK-OV-3 ovarian = system: SK-OV-3 ovarian
# NCI-H460 lung = system: NCI-H460 lung
# SR leukemia = system: SR leukemia
# LOX IMVI melanoma = system: LOX IMVI melanoma
# HCT-116 colon = system: HCT-116 colon
# UACC-257 melanoma = system: UACC-257 melanoma
# HT29 colon = system: HT29 colon
Structure (SMILES),TGI (HOP-62 NSCLC) [µM],TGI (HCT-15 colon) [µM],TGI (786-0 renal) [µM],TGI (SK-OV-3 ovarian) [µM],TGI (NCI-H460 lung) [µM],TGI (SR leukemia) [µM],TGI (LOX IMVI melanoma) [µM],TGI (HCT-116 colon) [µM],TGI (UACC-257 melanoma) [µM],TGI (HT29 colon) [µM],GI50 (HOP-62 NSCLC) [µM],GI50 (HCT-15 colon) [µM],GI50 (786-0 renal) [µM],GI50 (SK-OV-3 ovarian) [µM],GI50 (NCI-H460 lung) [µM],GI50 (SR leukemia) [µM],GI50 (LOX IMVI melanoma) [µM],GI50 (HCT-116 colon) [µM],GI50 (UACC-257 melanoma) [µM],GI50 (HT29 colon) [µM]
CC(=O)OC1(C#N)CC2OC1C1N=NN(C(=O)OC(C)(C)C)C21 (stereo not drawn),> 100,22.5,> 100,> 100,> 100,57.8,> 31.6,15.5,> 31.6,> 100,,,,,,,,,,
CCN(CC)CCC(=O)N1C/C(=C/c2ccccc2)C(=O)/C(=C\c2ccccc2)C1,26.1,3.91,9.78,20.9,11.4,> 100,0.949,1.02,4.98,2.24,,,,,,,,,,
Nc1nc(CC2(O)CCCCC2)cc(-c2ccccc2)n1,> 80.6,> 75.5,43.2,> 100,> 66,49.6,> 55.5,> 51,> 78.1,> 49.2,,,,,,,,,,
COc1cc2c(cc1OC)-c1ncc3cc(OC)c(OC)c(OC)c3c1C2,86.7,> 100,> 100,> 100,> 100,39.8,35.8,> 100,52.6,,34.8,35.4,40,33,31.6,11,16.8,31.8,16.4,
CCC(=O)Nc1ncnc2ncn(C(=O)CC)c12,> 100,> 100,> 100,> 100,> 100,> 100,> 100,> 100,> 100,> 100,,,,,,,,,,
CCCC(=O)Nc1c(I)cc(I)c(CC(CC)C(=O)O)c1I (stereo not drawn),> 100,> 100,> 100,> 100,> 100,> 100,> 100,> 100,> 100,> 100,> 100,> 100,> 100,> 100,> 100,> 100,> 100,> 100,> 100,> 100
C=C(C)[C@@H]1CC[C@]2(CN)CC[C@]3(C)[C@H](CC[C@@H]4[C@@]5(C)CCC(N)[C@@](C)(CO)[C@@H]5CC[C@]43C)[C@@H]12 (stereo partly drawn),3.24,3.24,3.11,3.2,3.51,3.63,3.1,3.05,3.24,3.12,1.78,1.65,1.64,1.8,1.87,1.53,1.64,1.61,1.77,1.59
CC(C)C1NC(=O)[C@H](C)OC(=O)[C@@H](C(C)C)NC(=O)[C@@H](C)OC(=O)C(C(C)C)NC(=O)[C@H](C)OC1=O (stereo partly drawn),> 100,34.2,47.2,> 100,> 100,72.9,> 79,> 100,> 100,> 100,,,,,,,,,,
N/C(=N\N=C\c1ccc(O)c(O)c1)NO,> 100,> 100,> 100,> 100,> 100,> 100,> 100,> 100,> 100,> 100,,,,,,,,,,
